In patent US20230265116A1, “DEGRADATION OF (EGFR) BY CONJUGATION OF EGFR INHIBITORS WITH E3 LIGASE LIGAND AND METHODS OF USE” (BEIGENE, LTD., priority 2020, published 2023):

How the values were obtained:
[1] = tested on: EGFR Del19/T790M/C797S (BaF3-DTC cells); assay: EGFR degradation HTRF assay, BaF3-DTC cells; type: cell-based; settings: 16h treatment; for DTC Dmax (%): maximum percentage of degradation; for DC50: read-out: DTC DC50
In short: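 BaF3 (WT, Del19/T790M/C797S) and HCC827 cells exposed 16 h at 37 °C, 5% CO2 to compounds in 0.2% DMSO medium, 8 doses from 10 uM top, 5-fold steps. Lysates read by HTRF (665/620 nm); degradation % vs DMSO control, DC50 from four-parameter fit, Dmax as maximal degradation.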

[2] = target: T1, EGFR L858R/T790M/C797S (BaF3-LTC cells) (Homo sapiens, UniProt P00533, C797S/L858R/T790M); assay: EGFR degradation HTRF assay, BaF3-LTC cells; type: cell-based; settings: BaF3-LTC, 16h treatment; for Dmax: maximum percentage of degradation, read-out: LTC Dmax (%); for DC50: read-out: LTC DC50
T1 construct: expressed in transfected cells; host or cells: BaF3
In short: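 Cells treated 16 h at 37 °C, 5% CO2 in medium with 0.2% DMSO; top final concentration 10 uM, 5-fold dilution, 8 doses. Lysates read by HTRF (665/620 nm); degradation % versus DMSO high control, DC50 from four-parameter fit, Dmax as maximal degradation.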

T1 sequence (P00533 25-1210 T790M/C797S/L858R): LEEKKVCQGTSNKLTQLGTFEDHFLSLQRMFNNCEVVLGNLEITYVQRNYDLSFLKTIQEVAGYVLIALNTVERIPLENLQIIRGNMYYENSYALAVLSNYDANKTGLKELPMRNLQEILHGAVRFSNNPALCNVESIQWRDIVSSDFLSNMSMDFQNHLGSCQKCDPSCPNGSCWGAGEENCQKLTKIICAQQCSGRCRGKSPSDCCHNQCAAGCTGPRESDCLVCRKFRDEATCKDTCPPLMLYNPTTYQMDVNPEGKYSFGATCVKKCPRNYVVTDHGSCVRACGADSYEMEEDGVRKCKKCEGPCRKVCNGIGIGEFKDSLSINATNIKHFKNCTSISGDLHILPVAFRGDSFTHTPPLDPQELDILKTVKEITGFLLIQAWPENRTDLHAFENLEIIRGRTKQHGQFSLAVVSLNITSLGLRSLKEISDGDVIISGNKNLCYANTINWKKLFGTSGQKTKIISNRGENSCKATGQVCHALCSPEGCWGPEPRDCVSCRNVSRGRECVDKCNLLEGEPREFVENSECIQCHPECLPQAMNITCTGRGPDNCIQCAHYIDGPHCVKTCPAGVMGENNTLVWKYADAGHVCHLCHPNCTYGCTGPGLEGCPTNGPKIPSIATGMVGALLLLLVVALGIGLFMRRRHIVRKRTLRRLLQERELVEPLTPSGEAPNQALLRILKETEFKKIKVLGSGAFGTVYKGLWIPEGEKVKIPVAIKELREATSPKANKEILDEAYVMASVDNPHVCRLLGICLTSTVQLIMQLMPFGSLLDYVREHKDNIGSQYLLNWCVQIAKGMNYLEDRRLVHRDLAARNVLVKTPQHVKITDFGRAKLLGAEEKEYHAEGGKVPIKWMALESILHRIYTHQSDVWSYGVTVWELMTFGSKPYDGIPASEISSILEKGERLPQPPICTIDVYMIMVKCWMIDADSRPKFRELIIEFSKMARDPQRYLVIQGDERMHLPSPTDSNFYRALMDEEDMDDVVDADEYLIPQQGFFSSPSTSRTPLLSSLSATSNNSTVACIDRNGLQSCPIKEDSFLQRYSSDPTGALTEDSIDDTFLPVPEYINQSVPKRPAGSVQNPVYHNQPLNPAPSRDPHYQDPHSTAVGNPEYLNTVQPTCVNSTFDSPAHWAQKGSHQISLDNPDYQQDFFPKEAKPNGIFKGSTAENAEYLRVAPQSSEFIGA

| SMILES | DTC Dmax (%) [1] [%] | DC50 [1] [nM] | Dmax [2] [%] | DC50 [2] [nM] |
| --- | --- | --- | --- | --- |
| CCc1cc(Nc2ncc(Br)c(Nc3ccc4nccnc4c3P(C)(C)=O)n2)c(OC)cc1N1CCC(N2CCN(C(=O)C3CN(c4cccc(C5CCC(=O)NC5=O)c4)C3)CC2)CC1 (stereo not drawn) [Example 230, 3-(3-(3-(4-(1-(4-((5-bromo-4-((5-(dimethylphosphoryl)quinoxalin-6-yl)amino)pyrimidin-2-yl)amino)-2-ethyl-5-methoxyphenyl)piperidin-4-yl)piperazine-1-carbonyl)azetidin-1-yl)phenyl)piperidine-2,6-dione] | 73.42 | 9.11 | 72 | 19.8 |
| CCc1cc(Nc2ncc(Br)c(Nc3ccc4nccnc4c3P(C)(C)=O)n2)c(OC)cc1N1CCC(N2CCN(CC3CN(c4ccc5c(c4)C(=O)N(C4CCC(=O)NC4=O)C5)C3)CC2)CC1 (stereo not drawn) [Example 239, 3-(6-(3-((4-(1-(4-((5-bromo-4-((5-(dimethylphosphoryl)quinoxalin-6-yl)amino)pyrimidin-2-yl)amino)-2-ethyl-5-methoxyphenyl)piperidin-4-yl)piperazin-1-yl)methyl)azetidin-1-yl)-1-oxoisoindolin-2-yl)piperidine-2,6-dione] | 88.8 | 3.34 | 87 | 12.3 |
| CCc1cc(Nc2ncc(Br)c(Nc3ccc4nccnc4c3P(C)(C)=O)n2)c(OC)cc1N1CCC(N2CCN(C(=O)C3CN(c4ccc5c(c4)C(=O)N(C4CCC(=O)NC4=O)C5)C3)CC2)CC1 (stereo not drawn) [Example 227, 3-(6-(3-(4-(1-(4-((5-bromo-4-((5-(dimethylphosphoryl)quinoxalin-6-yl)amino)pyrimidin-2-yl)amino)-2-ethyl-5-methoxyphenyl)piperidin-4-yl)piperazine-1-carbonyl)azetidin-1-yl)-1-oxoisoindolin-2-yl)piperidine-2,6-dione] | 90.5 | 4.87 | 91.8 | 10.3 |
| CCc1cc(Nc2ncc(Br)c(Nc3ccc4nc(C)ccc4c3P(C)(C)=O)n2)c(OC)cc1N1CCC(N2CCN(CCN(C)c3cccc4c3CN(C3CCC(=O)NC3=O)C4=O)CC2)CC1 (stereo not drawn) [Example 256, 3-(4-((2-(4-(1-(4-((5-bromo-4-((5-(dimethylphosphoryl)-2-methylquinolin-6-yl)amino)pyrimidin-2-yl)amino)-2-ethyl-5-methoxyphenyl)piperidin-4-yl)piperazin-1-yl)ethyl)(methyl)amino)-1-oxoisoindolin-2-yl)piperidine-2,6-dione] | 94.38 | 1.78 | 91.8 | 7.84 |
| CCc1cc(Nc2ncc(Br)c(Nc3ccc4nc(C(F)(F)F)ccc4c3P(C)(C)=O)n2)c(OC)cc1N1CCC(N2CCN(CCc3cc(F)c(C4CCC(=O)NC4=O)c(F)c3)CC2)CC1 (stereo not drawn) [Example 435, 3-(4-(2-(4-(1-(4-((5-bromo-4-((5-(dimethylphosphoryl)-2-(trifluoromethyl)quinolin-6-yl)amino)pyrimidin-2-yl)amino)-2-ethyl-5-methoxyphenyl)piperidin-4-yl)piperazin-1-yl)ethyl)-2,6-difluorophenyl)piperidine-2,6-dione] | 92.59 | 7.48 | 89.9 | 23.9 |
| CCc1cc(Nc2ncc(Br)c(Nc3ccc4nccnc4c3P(C)(C)=O)n2)c(OC)cc1N1CCN(C2CCN(C3CCC(c4ccc(C5CCC(=O)NC5=O)cc4)C3)CC2)CC1 (stereo not drawn) [Example 178, 3-(4-(3-(4-(4-(4-((5-bromo-4-((5-(dimethylphosphoryl)quinoxalin-6-yl)amino)pyrimidin-2-yl)amino)-2-ethyl-5-methoxyphenyl)piperazin-1-yl)piperidin-1-yl)cyclopentyl)phenyl)piperidine-2,6-dione] | 81.18 | 44.4 | 83.5 | 71.8 |
| CCc1cc(Nc2ncc(Br)c(Nc3ccc4nc(C5CC5)ccc4c3P(C)(C)=O)n2)c(OC)cc1N1CCC(N2CCN(CC3CN(c4ccc5c(c4)CN(C4CCC(=O)NC4=O)C5=O)C3)CC2)CC1 (stereo not drawn) [Example 426, 3-(5-(3-((4-(1-(4-((5-bromo-4-((2-cyclopropyl-5-(dimethylphosphoryl)quinolin-6-yl)amino)pyrimidin-2-yl)amino)-2-ethyl-5-methoxyphenyl)piperidin-4-yl)piperazin-1-yl)methyl)azetidin-1-yl)-1-oxoisoindolin-2-yl)piperidine-2,6-dione] | 91.88 | 4.34 | 89 | 6.67 |
| CCc1cc(Nc2ncc(Br)c(Nc3ccc4nccnc4c3P(C)(C)=O)n2)c(OC)cc1N1CCC(N2CCN(C(=O)C3CN(c4ccc(C5CCC(=O)NC5=O)c(C#N)c4)C3)CC2)CC1 (stereo not drawn) [Example 306, 5-(3-(4-(1-(4-((5-bromo-4-((5-(dimethylphosphoryl)quinoxalin-6-yl)amino)pyrimidin-2-yl)amino)-2-ethyl-5-methoxyphenyl)piperidin-4-yl)piperazine-1-carbonyl)azetidin-1-yl)-2-(2,6-dioxopiperidin-3-yl)benzonitrile] | 73.14 | 9.57 | 85.8 | 17.1 |
| CCc1cc(Nc2ncc(Br)c(Nc3ccc4nccnc4c3P(C)(C)=O)n2)c(OC)cc1N1CCC(N2CCN(C(=O)[C@H]3CCN(c4ccc5c(c4)C(=O)N(C4CCC(=O)NC4=O)C5=O)C3)CC2)CC1 (stereo partly drawn) [Example 66, 5-((S)-3-(4-(1-(4-((5-bromo-4-((5-(dimethylphosphoryl)quinoxalin-6-yl)amino)pyrimidin-2-yl)amino)-2-ethyl-5-methoxyphenyl)piperidin-4-yl)piperazine-1-carbonyl)pyrrolidin-1-yl)-2-(2,6-dioxopiperidin-3-yl)isoindoline-1,3-dione] | 92.43 | 4.19 | 86.3 | 11 |
| CCc1cc(Nc2ncc(Br)c(Nc3ccc4nccnc4c3P(C)(C)=O)n2)c(OC)cc1N1CCC(N2CCN(CC3CN(c4ccc(C5CCC(=O)NC5=O)c(F)c4)C3)CC2)CC1 (stereo not drawn) [Example 252, 3-(4-(3-((4-(1-(4-((5-bromo-4-((5-(dimethylphosphoryl)quinoxalin-6-yl)amino)pyrimidin-2-yl)amino)-2-ethyl-5-methoxyphenyl)piperidin-4-yl)piperazin-1-yl)methyl)azetidin-1-yl)-2-fluorophenyl)piperidine-2,6-dione] | 85.86 | 17.1 | 80.8 | 34.8 |
| CCc1cc(Nc2ncc(Br)c(Nc3ccc4nc(C)ccc4c3P(C)(C)=O)n2)c(OC)cc1N1CCC(N2CCN(CC3CCN(c4cc(F)c(NC5CCC(=O)NC5=O)c(F)c4)CC3)CC2)CC1 (stereo not drawn) [Example 718, 3-((4-(4-((4-(1-(4-((5-bromo-4-((5-(dimethylphosphoryl)-2-methylquinolin-6-yl)amino)pyrimidin-2-yl)amino)-2-ethyl-5-methoxyphenyl)piperidin-4-yl)piperazin-1-yl)methyl)piperidin-1-yl)-2,6-difluorophenyl)amino)piperidine-2,6-dione] | 79.24 | 25.6 | 89.6 | 121 |
| COc1cc(N2CCC(N3CCN(CCC4CCN(c5cc(F)c(C6CCC(=O)NC6=O)c(F)c5)CC4)CC3)CC2)c(C)cc1Nc1ncc(Br)c(Nc2ccc3nccnc3c2P(C)(C)=O)n1 (stereo not drawn) [Example 215, 3-(4-(4-(2-(4-(1-(4-((5-bromo-4-((5-(dimethylphosphoryl)quinoxalin-6-yl)amino)pyrimidin-2-yl)amino)-5-methoxy-2-methylphenyl)piperidin-4-yl)piperazin-1-yl)ethyl)piperidin-1-yl)-2,6-difluorophenyl)piperidine-2,6-dione] | 96.67 | 4.91 | 91.4 | 20.5 |
| CCc1cc(Nc2ncc(Br)c(Nc3ccc4nc(C)ccc4c3P(C)(C)=O)n2)c(OC)cc1N1CCC(N2CCCN(CCc3cc(F)c(C4CCC(=O)NC4=O)c(F)c3)CC2)CC1 (stereo not drawn) [Example 713, 3-(4-(2-(4-(1-(4-((5-bromo-4-((5-(dimethylphosphoryl)-2-methylquinolin-6-yl)amino)pyrimidin-2-yl)amino)-2-ethyl-5-methoxyphenyl)piperidin-4-yl)-1,4-diazepan-1-yl)ethyl)-2,6-difluorophenyl)piperidine-2,6-dione] | 86.33 | 7.43 | 90.4 | 50.8 |
| CCc1cc(Nc2ncc(Br)c(Nc3ccc4nc(C)ccc4c3P(C)(C)=O)n2)c(OC)cc1N1CCC(N2CCN(CCN(C)c3cc(F)c(C4CCC(=O)NC4=O)c(F)c3)CC2)CC1 (stereo not drawn) [Example 433, 3-(4-((2-(4-(1-(4-((5-bromo-4-((5-(dimethylphosphoryl)-2-methylquinolin-6-yl)amino)pyrimidin-2-yl)amino)-2-ethyl-5-methoxyphenyl)piperidin-4-yl)piperazin-1-yl)ethyl)(methyl)amino)-2,6-difluorophenyl)piperidine-2,6-dione] | 93.56 | 4.29 | 90.8 | 9.35 |
| CCc1cc(Nc2ncc(Br)c(Nc3ccc4nccnc4c3P(C)(C)=O)n2)c(OC)cc1N1CCC(N2CCN(C[C@H]3C[C@H](N(C)c4ccc(C5CCC(=O)NC5=O)cc4)C3)CC2)CC1 (stereo partly drawn) [Example 245, 3-(4-(((1r,3r)-3-((4-(1-(4-((5-bromo-4-((5-(dimethylphosphoryl)quinoxalin-6-yl)amino)pyrimidin-2-yl)amino)-2-ethyl-5-methoxyphenyl)piperidin-4-yl)piperazin-1-yl)methyl)cyclobutyl)(methyl)amino)phenyl)piperidine-2,6-dione] | 87.52 | 11.9 | 81.4 | 30.1 |
